# Patent US9561231B2 (AbbVie Inc., priority 2012, dated 2017)
# Marks after values point to notes of the source that are not given here.
# Key:
# [1] = target: T1, first (BD1: amino acids K57-E168) bromodomain of BRD4 (Homo sapiens, UniProt O60885); test: TR-FRET bromodomain binding assay, BRD4 BD1; details: TR-FRET assay protocol (A-G, compound concentration range); Ki calculated from IC50, probe Kd and probe concentration; read-out: TR-FRET Binding Ki: BRD4 (BDI_K57-E168)
# T1 construct: His-tagged first (BD1: amino acids K57-E168)
# How it was run: (§1)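 Displacement of an Alexa647-labelled BET-inhibitor from His-tagged BD1 (K57-E168) or BD2 ([…]) measured by TR-FRET in pH 6.0 sodium phosphate buffer with NaCl, EDTA, Triton X-100 and DTT.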
# [2] = target: T2, second (BD2: amino acids E352-E168) bromodomain of BRD4 (Homo sapiens, UniProt O60885); test: TR-FRET bromodomain binding assay, BRD4 BD2; details: TR-FRET assay protocol (A-G, compound concentration range); Ki calculated from IC50, probe Kd and probe concentration; read-out: TR-FRET Binding Ki: BRD4 (BDII_E352-M457)
# T2 construct: protocol
# How it was run: as §1
# [3] = test system: breast cancer cell line MX-1; test: MX-1 cell line proliferation assay (3-day); assay type: cell-based; details: Homo sapiens, MX1; MX-1 cells, 72 h incubation, Cell Titer Glo; read-out: Cellular proliferation: EC50
# How it was run: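 MX-1 cells in RPMI/10% FBS, plated 5000/well overnight, then exposed to compound at final 3 to 0.0001 μM (3-fold series) for 3 days at 37° C. Cell Titer Glo luminescence normalized to DMSO-treated cells; EC50 from sigmoidal curve fit.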
# [4] = test system: OPM-2 human multiple myeloma cancer xenograft; test: Xenograft tumor growth inhibition assay: OPM-2; assay type: in vivo, SCID-beige female mice
# Method: (§2) The effect of example compounds to inhibit growth of human tumor xenografts implanted in mice was evaluated. Briefly, cells obtained from culture (MV4-11 and OPM-2) or tumor brie (MX-1) were suspended in cell culture medium (MEM, Suspension, no Calcium, no Glutamine, Life Technologies Corporation) containing Matrigel (phenol red free, Becton Dickinson Biosciences Discovery Labware) and inoculated subcutaneously (approximately 5 million per site) into the right hind flank of SCID-beige (MV4-11 and OPM-2) or SCID (MX-1) female mice (Charles Rivers Labs) on study day 0.
# (§3) Tumors were measured with a pair of calipers twice a week starting at the time of size match and tumor volumes were calculated according to the formula V=L×W^2/2 (V: volume, mm^3; L: length, mm. W: width, mm). Tumor volume was measured throughout the treatment period or until the mean tumor volume in each group reached an endpoint of >1000 mm^3.
# [5] = test system: LPS induced IL-6 production; test: LPS (lipopolysaccharide) induced IL-6 production mouse assay; details: 1 h before LPS 2.5 mg/kg i.p., serum IL-6 2 h after LPS, p<0.05
# Method: Severe combined immunodeficient female mice (5 per group) received an intraperitoneal challenge of lipopolysaccharide (2.5 mg/kg, L2630 E. coli 0111:B4) one hour after oral administration of compounds. Mice were euthanized 2 hours after lipopolysaccharide injection, blood was removed by cardiac puncture, and then the serum harvested from the blood samples was frozen at −80° C. On the day of the assay the serum samples were brought to room temperature and then diluted 1:20 in phosphate-buffered saline containing 2% bovine serum albumin. Interleukin-6 measurements were performed using a cytokine assay from Meso Scale Discovery (Gaithersburg, Md.) for mouse serum analysis according to the manufacturer's protocol and read on a SECTOR Imager 6000 (Meso Scale Discovery, Gaithersburg, Md.) instrument. Statistical analysis was performed using Prism software (version 5.0) incorporating Dunnett's one way ANOVA. The IL-6 mean and standard deviation of the group of vehicle treated animals were compared with the IL-6 mean and standard deviation of the group treated with drug. A p value <0.05 means that there is less than a 5% probability that the mean values in the two groups are equal.
# [6] = test system: MV4-11 human AML xenograft; test: Xenograft tumor growth inhibition assay: MV4-11; assay type: in vivo, SCID-beige female mice; details: QDx14, tumor volumes study day 31
# Method: as §2, §3
# [7] = test system: MX-1 human breast cancer xenograft; test: Xenograft tumor growth inhibition assay: MX-1; details: for % TGD (tumor growth delay): QDx14, endpoint 1000 mm^3; for % TGI (tumor growth inhibition): QDx14, tumor volumes study day 27
# Method: as §2, §3
# [8] = 3 mg/kg/day PO, QDx21, endpoint 1000 mm^3
smiles,measurement,setting,value
"CCS(=O)(=O)Nc1ccc(Oc2ccc(F)cc2F)c(-c2cn(C)c(=O)cc2OC)c1 [Example 271, N-[4-(2,4-difluorophenoxy)-3-(4-methoxy-1-methyl-6-oxo-1,6-dihydropyridin-3-yl)phenyl]ethanesulfonamide]",Ki,[1],9.76 nM
same,Ki,[2],1.55 nM
same,EC50,[3],47.3 nM
same,% TGI (tumor growth inhibition),"[4]; 1 mg/kg/day PO, QDx21",66* %
same,% TGD (tumor growth delay),"[4]; 1 mg/kg/day PO, QDx21, endpoint 1000 mm^3",51*** %
same,% TGI (tumor growth inhibition),"[4]; 3 mg/kg/day PO, QDx21",73* %
same,% TGD (tumor growth delay),[4]; [8],93*** %
same,"Inhibition of LPS induced IL-6 production, % inhibition",[5]; 3 mg/kg oral,76.9 @ 3 mg/kg %
"COc1cc(=O)n(C)cc1-c1cc(NS(C)(=O)=O)ccc1Oc1ccc(F)cc1F [Example 270, N-[4-(2,4-difluorophenoxy)-3-(4-methoxy-1-methyl-6-oxo-1,6-dihydropyridin-3-yl)phenyl]methanesulfonamide]",Ki,[1],25.6 nM
same,Ki,[2],10.9 nM
same,EC50,[3],138 nM
same,% TGI (tumor growth inhibition),"[4]; 3 mg/kg/day PO, QDx21",42* %
same,% TGD (tumor growth delay),[4]; [8],17%
same,% TGI (tumor growth inhibition),"[4]; 10 mg/kg/day PO, QDx21",60%
same,% TGD (tumor growth delay),"[4]; 10 mg/kg/day PO, QDx21, endpoint 1000 mm^3",59** %
same,"Inhibition of LPS induced IL-6 production, % inhibition",[5]; 3 mg/kg oral,68.8 @ 3 mg/kg %
"Cn1cc(-c2cc(NS(C)(=O)=O)ccc2Oc2ccc(F)cc2F)ccc1=O [Example 240, N-[4-(2,4-difluorophenoxy)-3-(1-methyl-6-oxo-1,6-dihydropyridin-3-yl)phenyl]methanesulfonamide]",Ki,[1],28.2 nM
same,Ki,[2],107 nM
same,EC50,[3],285 nM
same,% TGI (tumor growth inhibition),[6]; 3 mg/kg/day PO,0%
same,% TGI (tumor growth inhibition),[6]; 10 mg/kg/day PO,23%
same,% TGI (tumor growth inhibition),[6]; 30 mg/kg/day PO,65^b** %
same,% TGI (tumor growth inhibition),"[4]; 30 mg/kg/day PO, QDx14",36** %
same,% TGD (tumor growth delay),"[4]; 30 mg/kg/day PO, QDx14, endpoint 1000 mm^3",113** %
same,% TGD (tumor growth delay),[7]; 3 mg/kg/day PO,20%
same,% TGI (tumor growth inhibition),[7]; 3 mg/kg/day PO,40* %
same,% TGD (tumor growth delay),[7]; 10 mg/kg/day PO,35** %
same,% TGI (tumor growth inhibition),[7]; 10 mg/kg/day PO,55*** %
same,% TGD (tumor growth delay),[7]; 30 mg/kg/day PO,51*** %
same,% TGI (tumor growth inhibition),[7]; 30 mg/kg/day PO,61*** %
same,"Inhibition of LPS induced IL-6 production, % inhibition",[5]; 30 mg/kg oral,72.6 @ 30 mg/kg %
